System: mt-Keima HEK 293T cells
Assay: In vitro activation of mitophagy in mt-Keima 293T cells
Format: cell-based, human
Settings: 10 μM, 6 hours
Procedure: The specific method was as follows:
293T cells were cultured and passaged in the normal way, and inoculated in a 24-well plate, with 0.5 mL inoculated in each well. The cell density was 5×10^4 cells/mL, and a total of 2.5×10^4 cells were inoculated. Before inoculation, the cells in the centrifuge tube were pipetted evenly to ensure that the cell density at the beginning and at the end was consistent. After standing for 5-10 minutes, the plate was gently placed in the incubator. After overnight incubation, the original complete medium was removed, and 0.3 mL of a complete medium solution containing 1.5×10^5 TU lentiviruses was added to each well. After incubation at 37° C. for 8 hours, 200 μL of the complete medium was added to each well. After 24 hours of transfection, the medium was replaced until the cell density reached 80-90%, and the cells were digested and passaged a T25 flask. […] The successfully transfected cells were screened using a complete medium containing 0.5 μg/mL of a puromycin hydrochloride solution, and maintained with 0.25 μg/mL of the solution.
The confocal dishes were inoculated with 1 mL per dish, with a cell density of 2×10^5 cells/mL. After standing for 5-10 minutes, the dishes were gently placed in the incubator. When the cells grew to 30-40%, the drug was administered. After treating mt-Keima cells with 10 μM different iridoid monomer ingredients from the male flowers of Eucommia ulmoides Oliver or 10 μM CCCP for 6 hours, the medium was replaced with a fresh complete medium, and then live-cell confocal observation was performed directly. Confocal parameters: the excitation wavelengths were 440 nm and 596 nm each, and the emission wavelength was 620 nm, observed by a 40× water immersion objective.

| Molecule | mitophagy activation |
| --- | --- |
| CC(=O)OCC1=C[C@@H]2OC(=O)C3=CO[C@@H](O[C@@H]4O[C@H](CO)[C@@H](O)[C@H](O)[C@H]4O)[C@H]1[C@@H]32 [asperuloside] | had mitophagy-activating activity |
| OCC1=C[C@@H](O)[C@@H]2C=CO[C@@H](O[C@@H]3O[C@H](CO)[C@@H](O)[C@H](O)[C@H]3O)[C@H]12 [aucubin] | have mitophagy-activating activity |
| COC(=O)C1=CO[C@@H](O[C@@H]2O[C@H](CO)[C@@H](O)[C@H](O)[C@H]2O)[C@@H]2C(CO)=CC[C@H]12 [geniposide] | have mitophagy-activating activity |
| O=C(O)C1=CO[C@@H](O[C@@H]2O[C@H](CO)[C@@H](O)[C@H](O)[C@H]2O)[C@@H]2C(CO)=CC[C@H]12 [geniposidic acid] | have mitophagy-activating activity |
| carbonyl cyanide ester-3-chlorophenylhydrazone [CCCP] | significantly induced the occurrence of mitophagy |

Same assay, conditions: 10 μM, 6 hours, same concentration

| Molecule | comparison of the average fluorescence density ratio |
| --- | --- |
| CC(=O)OCC1=C[C@@H]2OC(=O)C3=CO[C@@H](O[C@@H]4O[C@H](CO)[C@@H](O)[C@H](O)[C@H]4O)[C@H]1[C@@H]32 [asperuloside] | better than that of the other three monomer ingredients |
